# Results taken from patent publication US3983102A, “Process for preparing 5"-amino-4',5"-dideoxybutirosin A” (Parke, Davis & Company, priority 1975, dated 1976).
# Tests used:
# Assay in all cases: in vitro antibacterial screening, MIC by microtitration in TSB
# Format in all cases: cell-based
# Pseudo. aerug. 733 = details: Pseudomonas aeruginosa
# Source text: (§1) They show activity when tested by well-recognized in vitro antibacterial screening procedures.
# Pseudo. aerug. Aquilar = details: Pseudomonas aeruginosa, butirosin resistant
# Source text: as §1
# Esch. coli JR-76.2 = details: Escherichia coli, JR76.2
# Source text: as §1
# Pseudo. aerug. 130 = details: Pseudomonas aeruginosa, Pseudo. aerug. 130, gentamicin resistant
# Source text: as §1
# Entero. cloacae IMM-50 = details: Enterobacter cloacae, IMM50
# Source text: as §1
# Pseudo. aerug. LA-3399 = details: Pseudomonas aeruginosa
# Source text: as §1
# Serr. marcescens IMM-5 = details: Serratia marcescens, IMM5
# Source text: as §1
# Pseudo. aerug. G-76 = details: Pseudomonas aeruginosa, Pseudo. aerug. G-76, butirosin and gentamicin resistant
# Source text: as §1
# Klebs. pneumoniae MGH-1 = details: Klebsiella pneumoniae, MGH1
# Source text: as §1
# Pseudo. aerug. 74C-1 = details: Pseudomonas aeruginosa
# Source text: as §1
# Pseudo. aerug. UI-18 = details: Pseudomonas aeruginosa
# Source text: as §1
# Staph aureus S18713 = details: Staphylococcus aureus, Staph aureus S18713, butirosin resistant
# Source text: as §1
# Pseudo. aerug. No. 28 = details: Pseudomonas aeruginosa
# Source text: as §1
# Pseudo. aerug. VAD12-7-7 = details: Pseudomonas aeruginosa
# Source text: as §1
# Pseudo. aerug. 58.38 = details: Pseudomonas aeruginosa
# Source text: as §1
smiles,measurement,setting,value
"NCC[C@H](O)C(=O)N[C@@H]1C[C@H](N)[C@@H](O[C@H]2O[C@H](CN)C[C@H](O)[C@H]2N)[C@H](O[C@@H]2O[C@H](CN)[C@H](O)[C@H]2O)[C@H]1O [I carbonate, 5""-amino-4',5""-dideoxybutirosin A]",MIC,Pseudo. aerug. 733,6.3 µg/mL
same,MIC,Pseudo. aerug. Aquilar,25 µg/mL
same,MIC,Esch. coli JR-76.2,25 µg/mL
same,MIC,Pseudo. aerug. 130,6.3 µg/mL
same,MIC,Entero. cloacae IMM-50,6.3 µg/mL
same,MIC,Pseudo. aerug. LA-3399,12.5 µg/mL
same,MIC,Serr. marcescens IMM-5,12.5 µg/mL
same,MIC,Pseudo. aerug. G-76,12.5 µg/mL
same,MIC,Klebs. pneumoniae MGH-1,6.3 µg/mL
same,MIC,Pseudo. aerug. 74C-1,3.1 µg/mL
same,MIC,Pseudo. aerug. UI-18,6.3 µg/mL
same,MIC,Staph aureus S18713,6.3 µg/mL
same,MIC,Pseudo. aerug. No. 28,3.1 µg/mL
same,MIC,Pseudo. aerug. VAD12-7-7,1.6 µg/mL
same,MIC,Pseudo. aerug. 58.38,6.3 µg/mL
